Source: PubChem BioAssay AID1419 (Emory University Molecular Libraries Screening Center, 2008)
Active and inactive are the calls of the source. The rule behind the calls is not given here.

Assay: blockers of an Epstein-Barr virus protein-peptide interaction – biochemical, fluorescence polarization, dose response (AID 1419)
Conditions: cell-free protein-peptide binding, 2 h; for fold change: measured here: P channel fold over control, at 54 µM

Row | Structure (SMILES) | IC50 | fold change
1 | CC(=O)c1ccc(N2C(=O)C3C(C2=O)C(C(=O)c2ccc(Cl)cc2)N2CCCC32)cc1 (stereo not given) | 7.19 µM | 8.74
2 | O=C(COC(=O)c1c2c(nc3ccccc13)/C(=C/c1ccco1)CC2)NC1CCCC1 | > 54 µM (inactive) | 2.02
3 | Cc1nn(C)cc1N1C(=O)c2cccc3c(N)ccc(c23)C1=O | < 0.42 µM | 109
4 | CC1CCc2cccc3c2N1c1cc(C#N)c(C#N)cc1O3 (stereo not given) | 6.6 µM | 8.38
5 | CN1C(=O)C(=Cc2ccc(N3CCCCCC3)cc2)C(=O)N(C)C1=O | 6.16 µM | 11.1
6 | Nn1c(Cc2ccccc2F)nnc1SCC(=O)N1CC(=O)Nc2ccccc21 | > 54 µM (inactive) | 1
7 | COc1ccc(C(=O)c2sc3nc(C)cc(-c4cccs4)c3c2N)cc1OC | 16.5 µM | 7.43
8 | CCCCn1c(=O)[nH]c2nc3cc(N)ccc3nc2c1=O | < 0.42 µM | 110
9 | COc1ccc(N=C2S/C(=C\c3ccc(OCC(=O)O)cc3)C(=O)N2CCc2c[nH]c3ccccc23)cc1 | 1.88 µM | 1.05
10 | Cc1cc(C=C2C(=O)c3ccccc3C2=O)c(C)n1-c1ccccc1 | 5.56 µM | 9.41
11 | CN(CCC#N)C(=O)COC(=O)c1c2c(nc3ccccc13)/C(=C/c1ccco1)CC2 | 3.18 µM | 2.86
12 | O=C1/C(=C/c2ccco2)Oc2c1ccc(O)c2CN1CCCCC1 | 1.93 µM | 22.1
13 | O=C1C2=C(SCCS2)C(=O)N1CCCO | 2.57 µM | 3.44
14 | O=C(CSc1nc(-c2ccc(F)cc2)nc2c1Cc1ccccc1O2)Nc1cccc(C(=O)O)c1 | 1.63 µM | 1.13
15 | Cc1ccccc1N1C(=O)c2cccc3c(N(C)CCO)ccc(c23)C1=O | 0.74 µM | 14
16 | O=[N+]([O-])c1ccc(O)c(N=Cc2sc3ccccc3c2O)c1 | > 54 µM (inactive) | 1.45
17 | COc1cc(/C=C2\SC(=O)N(c3ccc(Cl)cc3)C2=O)cc([N+](=O)[O-])c1O | 4.58 µM | 1.13
18 | O=C(Nc1ccc(Cl)c(Cl)c1)Nc1nnc(-c2ccncc2)s1 | 2.54 µM | 1.23
19 | O=[N+]([O-])c1ccc(/C=N/n2c(CO)nc3ccccc32)s1 | 22.7 µM | 6.56
20 | COc1ccc(-n2c(C)cc(/C=C3\SC(=S)N(Cc4ccco4)C3=O)c2C)cc1 | 7.24 µM | 5.18

Row | Structure (SMILES) | IC50 | fold change
21 | Oc1ccc2ccccc2c1N=Nc1ccc(F)cc1 | > 54 µM (inactive) | 1.24
22 | O=C(CSc1nnc(SCc2ccccc2)s1)N/N=C/C=C\c1ccco1 | > 54 µM (inactive) | 1.04
23 | O=C(CSc1nc(-c2ccccc2)nc2c1Cc1ccccc1O2)Nc1ccc(C(=O)O)cc1 | 1.64 µM | 1.12
24 | COc1ccc(C(=O)NC2(C(F)(F)F)C(=O)N(Cc3ccco3)C3=C2C(=O)CC(C)(C)C3)cc1OC (stereo not given) | > 54 µM (inactive) | 1.14
25 | CSC1=NSC2=NC(=O)/C(=C/c3coc4ccc(O)cc4c3=O)C(=N)N12 | 2.5 µM | 63.6
26 | Cc1cc(/C=N/NC(N)=S)c(O)c(/C=N/NC(N)=S)c1 | < 0.42 µM | 26.6
27 | O=C(C1=C(O)C(=O)N(c2ncccn2)C1c1cccs1)c1ccco1 (stereo not given) | 5.21 µM | 1.87
28 | NC(=O)c1sc2nc3c(c(-c4ccccc4)c2c1N)CCC3 | > 54 µM (inactive) | 0.963
29 | Cc1cc(Br)c2nc3c(c(C(=O)O)c2c1)CCCCC3 | > 54 µM (inactive) | 1.06
30 | Nc1ccc(O)c2c1C(=O)c1ccccc1C2=O | 3.1 µM | 2.55
31 | Cn1c(=O)c(N)c2c3c(c(Br)ccc31)C(=O)c1ccccc1-2 | < 0.42 µM | 98.9
32 | COc1ccccc1Nc1nc2ccc(C)cc2cc1C#N | 16.6 µM | 2.74
33 | CN(C)c1ccc(/C=C2\SC(=O)N(CC(O)Cn3c4ccccc4c4ccccc43)C2=O)cc1 (stereo not given) | 2.46 µM | 10.3
34 | Cc1ccc(N=C2NC(=O)/C(=C/c3cn(C)c4ccccc34)S2)cc1C | 4.47 µM | 7.74
35 | Cc1cccn2c(=O)c3cc(C(=O)NCc4ccco4)c(=N)n(CCOCCO)c3nc12 | 3.61 µM | 3.76
36 | CCc1ccc(NC(=O)c2ccc3ncsc3c2)cc1 | > 54 µM (inactive) | 0.87
37 | Cc1ccc(S(=O)(=O)Nc2ccc(N3CCN(C)CC3)nc2)cc1 | 3.59 µM | 2.82
38 | CC1=Nc2ccccc2/C1=C\c1nc(-c2ccc(F)cc2)oc1O | 1.7 µM | 19
39 | Cc1ccc(C)c2nc3sc(C(=O)N4CCCc5ccccc54)c(N)c3cc12 | 1.24 µM | 11.6
40 | COC(=O)c1cc2c(C)cc3ccc(C)cn3c-2c1C(=O)OC | 9.57 µM | 4.48

Row | Structure (SMILES) | IC50 | fold change
41 | Cc1cccc(NC(=O)CSc2nnnn2C)n1 | > 54 µM (inactive) | 1.02
42 | COc1ccc2nc(N3CCC(C)CC3)c(C#N)cc2c1 | 9.17 µM | 1.94
43 | O=C(NCCCn1ccnc1)c1ccc2c(c1)OCCO2 | > 54 µM (inactive) | 1.03
44 | COc1ccc(-c2cc(C(F)(F)F)c3c(n2)sc2c(O)cc(=O)[nH]c23)c(OC)c1 | 3.77 µM | 3.12
45 | O=[N+]([O-])c1ccc(-c2cn3nc(-c4ccccc4)c(-c4ccccc4)nc3n2)cc1 | 3.58 µM | 21.1
46 | N=C1/C(=C/c2ccc(-c3cccc(C(=O)O)c3)o2)C(=O)N=C2SC=C(c3ccccc3)N12 | 3.82 µM | 1.36
47 | CS(=O)(=O)N1N=C(c2ccccc2)CC1c1ccc2c(c1)OCO2 (stereo not given) | 9.83 µM | 4.93
48 | O=C1C(=Cc2cccn2-c2ccc(O)cc2)C(=O)c2ccccc21 | 1.94 µM | 4.4
49 | CN(C)c1ccc(/C=c2/sc3n(c2=O)NC2(c4ccccc4)N(C)C(=O)N(C)C2(c2ccccc2)N=3)cc1 (stereo not given) | > 54 µM (inactive) | 5.21
50 | O=C1CCCC2=C1Sc1ccccc1N2 | 5.07 µM | 1.99
51 | Cc1ccc(C(=O)NN2C(=O)/C(=C/c3cn(C)c4ccccc34)SC2=S)cc1 | 3.42 µM | 6.95
52 | COc1ccc(C2C(C(=O)c3cccs3)=C(O)C(=O)N2c2nnc(C)s2)cc1OC (stereo not given) | 3.11 µM | 10.8
53 | O=C(Nc1ccc(-n2cnnn2)cc1)C1CCC1 | > 54 µM (inactive) | 0.983
54 | Nc1cccc2c1C(=O)N(CC(=O)NC13CC4CC(CC(C4)C1)C3)C2=O | 8.06 µM | 2.22
55 | CCOC(=O)C1CCCN(c2nc3ccccc3nc2C(C#N)C(=O)NCc2ccccc2)C1 (stereo not given) | 8.82 µM | 2.73
56 | Cc1ccc(C)n1-c1cc(S(=O)(=O)N2CCOCC2)ccc1N1CCCC1 | > 54 µM (inactive) | 1.02
57 | O=[n+]1c2c(n([O-])c3cc(F)c(N4CCCC4)cc31)CCCC2 | < 0.42 µM | 11.6
58 | Cc1cc[n+](-c2[nH]c(=O)sc2/C=N/N=C(\[O-])c2ccccc2)cc1C | < 0.42 µM | 16.5
59 | Cc1cc(C=C2C(=O)c3ccccc3C2=O)c(C)n1-c1ccc(Cl)cc1 | 8.5 µM | 6.3
60 | Oc1[nH]c2ccccc2c1N=Nc1ccccc1 | 18.8 µM | 21.6
